Where a name gives a salt, the structure may show the parent alone.
How the values were obtained:
[1] = molecular target: T1, human adenosine A3 receptor (Homo sapiens, UniProt P0DMS8); assay: Binding assay with adenosine A3 receptor: [3H]-NECA binding to membranes of A3AR/CHO cells; conditions: 10 nM [3H]-NECA, 100 μg/ml A3AR/CHO cell membranes, 1 hour at room temperature; read-out: IC50 (concentration that inhibits 50% specific binding of [3H]-NECA to the membrane)
T1 construct: expressed in transfected cells; membrane fraction used
T1 sequence (P0DMS8 1-318): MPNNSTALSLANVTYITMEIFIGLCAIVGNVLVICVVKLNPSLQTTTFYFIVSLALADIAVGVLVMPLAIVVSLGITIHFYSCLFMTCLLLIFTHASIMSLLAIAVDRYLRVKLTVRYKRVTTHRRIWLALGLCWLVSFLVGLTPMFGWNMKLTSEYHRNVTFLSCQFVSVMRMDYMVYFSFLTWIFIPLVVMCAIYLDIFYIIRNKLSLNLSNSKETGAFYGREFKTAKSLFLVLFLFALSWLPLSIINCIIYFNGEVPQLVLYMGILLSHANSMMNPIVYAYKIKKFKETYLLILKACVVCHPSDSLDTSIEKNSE
Protocol: (1) Cloning of Human Adenosine A3 Receptor
Cloning of the human adenosine A3 receptor gene was carried out by the polymerase chain reaction (PCR) from human brain cDNA. Using 1 ng of brain cDNA (Quick-Clone cDNA, TOYOBO, Osaka) as template, PCR was performed in DNA Thermal Cycler 480 (Perkin Elmer, Foster, Calif.) (reaction conditions: 35 cycles of 1 min at 95° C., 1 min at 66° C., and 2 min at 75° C.) by mixing primers (50 pmol each), 5′-[…]-3′ [Sequence No. 1] and 5′-[…]-3′ [Sequence No. 2], which were designed referring to nucleotide sequence of adenosine A3 receptor gene reported by Salvatore et. al., (Proc. Natl. Acad. Sci. U.S.A., 90:10365-10369, 1993) and TaKaRa LA PCR Kit Ver.2 (TaKaRa Shuzo Co. Ltd., Kyoto) in a Thermal cycler 480 (Parkin Elmer). The PCR product was electrophoresed and 1.0 kb DNA fragment was recovered. The DNA fragment encoding adenosine A3 receptor was cloned using Original TA Cloning Kit (FUNAKOSHI, Tokyo).
(3) Transfection of Adenosine A3 Receptor Expression Plasmid into CHO (dhfr^−) and the Expression
CHO (dhfr^−) cells were grown on Ham's F-12 medium (Nihon Selyaku, Tokyo) supplement with 10% fetal bovine serum (Life Tech Oriental; Life Technologies, Inc., Rockville, Md., USA) in a 750 ml Tissue culture flask (Becton Dickinson, Mt. View, Calif.). The growing cells were treated with 0.5 g/l trypsin-0.2 g/l EDTA (Life Technologies, Inc., Rockville, Md., USA) to harvest, washed with PBS (Life Technologies, Inc., Rockville, Md., USA), centrifugated at 1000 rpm for 5 min, and suspended in PBS. […] The cells were incubated in assay buffer I (HBSS (Wako chemicals, Osaka) containing 0.1% BSA, 0.25 mM PMSF, 1 μg/ml pepstatin, and 20 μg/ml leupeptin) to which was added 50 pM ^125I-AB-MECA (Amersham) as ligand, for 1 hour, and washed with assay buffer I. The radioactivity associated with the:.cell was measured in a γ-counter to select A3AR/CHO cells which specifically bind to the ligand. […]

Row | IC50 [1] | melting point | Compound
1 | 0.55 nM | – | COc1ccc(-c2nc(NC(C)=O)sc2-c2ccncc2)cc1 [13-89]
2 | 0.7 nM | 213 to 216 °C | COc1ccc(-c2nc(NC(=O)C(C)C)sc2-c2cccnc2)cc1 [13-92]
3 | – | 275 to 278 °C | COc1ccc(-c2nc(NC(C)=O)sc2-c2ccncc2)cc1 (as salt: HCl) [13-89]

Further lines, the molecule ahead of its results:

Row | Compound | IC50 [1] | melting point
4 | COc1ccc(-c2nc(NC(C)=O)sc2-c2cccnc2)cc1 [Reference Example Compound 10, N-[4-(4-Methoxyphenyl)-5-(3-pyridyl)-1,3-thiazol-2-yl]acetamide] | 0.27 nM | –
5 | CC(C)(C)c1ccc(-c2sc(N)nc2-c2ccncc2)cc1 [Example Compound 4-1, [5-[4-(1,1-dimethylethyl)phenyl]-4-(4-pyridyl)-1,3-thiazol-2-yl]amine] | – | 275 to 277 °C
6 | CC(=O)Nc1nc(-c2ccncc2)c(-c2ccc(C(C)(C)C)cc2)s1 [Example Compound 5-1, N-[5-[4-(1,1-dimethylethyl)phenyl]-4-(4-pyridyl)-1,3-thiazol-2-yl]acetamide] | – | 245 to 246 °C
7 | CC(=O)Nc1nc(-c2ccncc2)c(-c2cc(C)cc(C)c2)s1 [Example Compound 5-2, N-[5-(3,5-dimethylphenyl)-4-(4-pyridyl)-1,3-thiazol-2-yl]acetamide] | – | 304 to 308 °C
8 | Cc1cc(C)cc(-c2sc(N)nc2-c2ccncc2)c1 [Example Compound 4-2, [5-(3,5-dimethylphenyl)-4-(4-pyridyl)-1,3-thiazol-2-yl]amine] | – | 262 to 263 °C

From patent US6436966B1, “Adenosine A3 receptor antagonists” (Takeda Chemical Ind., Ltd., priority 1997, dated 2002)
